Patent US6686361B2, “R-6-hydroxy-buspirone” (Bristol-Myers Squibb Company, priority 2001, dated 2004)

Tests used:
[1] = test system: rat pup ultrasonic vocalizations; conditions: functional testing, background; cited from earlier work
[2] = test system: rat pup ultrasonic vocalizations; assay: Rat pup isolation-induced ultrasonic vocalization test; type: in vivo; conditions: rat pups; for anxiolytic activity (ultrasonic vocalizations): 0.3 and 1 mg/kg s.c.
Procedure: Harlan Sprague-Dawley rat pups (male and female) were housed in polycarbonate cages with the dam until 9-11 days old. Thirty minutes before testing, pups were removed from the dam, placed into a new cage with a small amount of home bedding and brought into the lab and placed under a light to maintain body temperature at 37° C. Pups were then weighed, sexed, marked and returned to the litter group until behavioral assessment. Testing took place in a Plexiglas recording chamber that contained a metal plate maintained at (18-20° C.) with a 5×5 cm grid drawn on the plate. A microphone was suspended 10 cm above the plate to record ultrasonic vocalizations. Ultrasonic calls were recorded using the Noldus UltraVox system providing online analysis of the frequency and duration of calls. The number of grid cells entered by the pup was also collected by visual scoring. […] Immediately following the collection of the baseline measures, pups were injected with vehicle or drug subcutaneously at the nape of the neck and returned to its littermates. Thirty minutes later, pups were retested on each of the dependent measures (vocalization and grid cell crossings) to assess drug effects. Unless otherwise specified, each pup was used only once. Baseline differences and percent change from baseline for the frequency of ultrasonic vocalizations and grid cell crossings were analyzed using a one-way ANOVA. Bonferroni/Dunn post hoc comparisons were performed to assess the acute drug effects with vehicle control. Log-probit analysis was used to estimate the dose (milligrams per kilogram) of each agonist predicted to inhibit isolation-induced ultrasonic vocalizations by 50% (ID50). All comparison were made with an experimental type I error rate (α) set at 0.05.
Doses for each drug were administered in an irregular order across several litters. R-6-hydroxy-buspirone and racemic 6-hydroxy-buspirone were dissolved in physiological saline (0.9% NaCl; vehicle). All injections were administered subcutaneously in a volume of 10 ml/kg. Doses of the drug refer to weight of the salt.

human 5-HT1A receptor [3] = biological target: T1, human 5-HT1A receptor (Homo sapiens, UniProt P08908); conditions: preclinical studies, background; cited from earlier work
T1 construct: expressed in transfected cells; host or cells: HEK293
T1 sequence (P08908 1-422): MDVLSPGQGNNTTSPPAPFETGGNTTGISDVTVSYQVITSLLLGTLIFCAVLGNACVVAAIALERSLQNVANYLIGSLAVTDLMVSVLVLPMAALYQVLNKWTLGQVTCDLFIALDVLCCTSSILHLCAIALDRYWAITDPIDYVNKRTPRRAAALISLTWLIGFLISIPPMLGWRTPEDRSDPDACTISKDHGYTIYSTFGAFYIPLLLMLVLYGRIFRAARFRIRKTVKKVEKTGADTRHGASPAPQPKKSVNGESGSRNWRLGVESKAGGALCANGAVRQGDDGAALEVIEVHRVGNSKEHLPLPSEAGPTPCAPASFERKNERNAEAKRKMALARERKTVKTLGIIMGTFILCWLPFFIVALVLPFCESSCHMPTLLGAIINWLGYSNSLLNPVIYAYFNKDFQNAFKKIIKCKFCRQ

human 5-HT1A receptor [4] = biological target: T1, human 5-HT1A receptor; assay: 5-HT1A receptor binding assay; conditions: human 5-HT1A receptor expressed in HEK293 cells, 3H-8-OH-DPAT
Procedure: Membranes are prepared for binding using the human 5-HT1 A receptor expressed in HEK293 cells. Cells are collected and ruptured using a dounce homogenizer. The cells are spun at 18000×g for 10 minutes and the pellet is resuspended in assay buffer, frozen in liquid nitrogen and kept at −80° C. until the day of the assay.
A total of 30 ug protein is used per well. The assay is carried out in 96-deep-well plates. The assay buffer is 50 mM HEPES containing 2.5 mM MgCl2 and 2 mM EGTA. The membrane preparation is incubated at 25° C. for 60 minutes with 0.1 nM to 1000 nM test compound and 1 nM 3H-8-OH-DPAT. […] serotonin serves as blocking agent to determine non-specific binding. The reaction is terminated by the addition of 1 ml of ice cold 50 mM HEPES buffer and rapid filtration through a Brandel Cell Harvester using Whatman GF/B filters. The filter pads are counted in an LKB Trilux liquid scintillation counter. IC50 values are determined using non-linear regression by Excel-fit.

D2(h) = D2(h) (Homo sapiens, UniProt P14416); assay: Receptor binding, D2(h)
Sequence of D2(h) (P14416 whole entry): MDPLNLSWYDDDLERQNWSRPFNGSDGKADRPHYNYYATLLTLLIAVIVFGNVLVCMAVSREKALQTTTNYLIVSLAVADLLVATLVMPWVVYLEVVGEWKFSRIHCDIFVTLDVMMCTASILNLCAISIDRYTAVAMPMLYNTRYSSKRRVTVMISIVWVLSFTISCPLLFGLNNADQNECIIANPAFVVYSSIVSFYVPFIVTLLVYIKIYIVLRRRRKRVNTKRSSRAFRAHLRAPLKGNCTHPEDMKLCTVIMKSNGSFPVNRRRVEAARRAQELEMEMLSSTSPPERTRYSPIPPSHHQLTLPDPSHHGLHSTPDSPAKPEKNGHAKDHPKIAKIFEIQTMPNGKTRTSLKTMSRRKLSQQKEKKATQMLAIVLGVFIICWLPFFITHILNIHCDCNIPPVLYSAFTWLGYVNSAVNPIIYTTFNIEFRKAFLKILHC

O=C1CC2(CCCC2)C(O)C(=O)N1CCCCN1CCN(c2ncccn2)CC1 (racemic) [6-hydroxy-buspirone]
anxiolytic response in the rat pup ultrasonic vocalization test [1]: dose-dependent anxiolytic response | anxiolytic activity (ultrasonic vocalizations) [2]: Statistically significant anxiolytic activity | animal movement, measured by crossing grid boundary lines ([2]; compared to animals dosed with the single enantiomer): appeared to be reduced | affinity for the human 5-HT1A receptor (human 5-HT1A receptor [3]): strong affinity

O=C1CC2(CCCC2)[C@@H](O)C(=O)N1CCCCN1CCN(c2ncccn2)CC1 [R-6-hydroxy-buspirone]
anxiolytic activity (ultrasonic vocalizations) [2]: Statistically significant anxiolytic activity | Ki (human 5-HT1A receptor [4]): 14 nM | Ki (D2(h)): 2870 nM

O=C1CC2(CCCC2)[C@H](O)C(=O)N1CCCCN1CCN(c2ncccn2)CC1 [S-6-hydroxy-buspirone]
Ki (human 5-HT1A receptor [4]): 24 nM | Ki (D2(h)): 1300 nM
